# Assay results reported in patent US11478513B2, “Cutibacterium avidum strain, and composition for preventing or treating atopic dermatitis, comprising strain or cultured product thereof” (priority 2018, dated 2022).
# Key:
# IL-6 = IL-6 RNA expression in HaCaT cells treated with heat-treated C. acnes; format: cell-based, human; details: pre-treated 1 hour, heat-treated C. acnes (100MOI) 4 hours, real-time PCR; FIG. 12
# Procedure: (§1) At first, GENSCO1 fermented filtrates were pre-treated for 1 hour to cells in which 2×10^5 of HaCaT human keratinocyte lines were attached in a 6-well plate, respectively, by culturing them in a 37° C. and 5% CO2 incubator for 24 hours. Then, the heat-treated C. acnes (100MOI) was treated and was reacted for 4 hours. Then, after extracting RNA for each sample, the RNA expression for the inflammation response cytokine factors, IL-6 and IL-8 was confirmed by real-time PCR.
# HaCaT cells = test: Cytotoxicity (MTT) in HaCaT cells; format: cell-based, human; details: experimental group in which rosmarinic acid was added, 48 hours
# Procedure: To evaluate the cytotoxicity of fermented filtrates prepared in the Example 3, the following experiment was progressed. HaCaT cells were attached on a 96-well cell culture plate for 24 hours at 5×10^3 cells/well each and then the test group samples were added by concentration to culture it under the condition of 5% CO2 and 37° C. for 48 hours. 48 hours later, the cultured cell medium was removed, and 0.5 mg/ml dimethylthiazol-2-y1)-2-5-diphenyltetrazolium bromide (MTT) formazan solution was treated to cells, and they were reacted for 4 hours, and after the time passage, all the cell medium was removed and the formazan solution was dissolved by DMSO and then the absorbance was measured at 570 nm with SpectraMax M2. Then, the survival rate of the HaCaT cell line was calculated by converting with the equation of O.Dsample/O.Dcontrol×100.
# IL-8 = IL-8 RNA expression in HaCaT cells treated with heat-treated C. acnes; format: cell-based, human; details: pre-treated 1 hour, heat-treated C. acnes (100MOI) 4 hours, real-time PCR; compared to control group induced to C. acnes; FIG. 11
# Procedure: as §1
# [1] = tested on: Cutibacterium acnes ATCC 6919; test: Growth inhibition, overlay clear zone test (C. acnes); format: cell-based; details: RCM agar overlay, anaerobic, 37° C., about 72 hours; triclosan 200 mg/ml
# Procedure: (§2) The effect of growth inhibition of S. aureus and C. acnes was confirmed by observing formation of a clear zone. […] The experiment was progressed, expecting that S. aureus and C. acnes around Cutibacterium avidum GENSC01 could not grow and they became transparent, if Cutibacterium avidum GENSC01 had the effect of inhibiting the growth of bacteria. The Cutibacterium avidum GENSC01 culture broth was collected with a platinum loop and was anaerobically cultured in a thin RCM agar plate at 37° C. for 72 hours by drawing a line about 2.5 cm. After confirming that Cutibacterium avidum GENSC01 sufficiently grew, S. aureus and C. acnes strains adjusted to 10^4 cfu/ml were inoculated in 10 ml RCM agar at about 45° C. which was not yet solidified, and they were well suspended before the medium was hardened, and they were evenly solidified by pouring them on the agar plate in which Cutibacterium avidum GENSC01 grew. In the solidified agar plate, S. aureus and C. acnes were further cultured anaerobically at 37° C. for about 40 hours and about 72 hours, respectively, to observe the size of the clear zone appearing around Cutibacterium avidum GENSC01. As the negative control group, phosphate-buffered saline (PBS) was used, and as the positive control group, triclosan was used, and S. aureus and C. acnes were treated at an amount of 10 mg/ml and 200 mg/ml, respectively.
# [2] = tested on: Staphylococcus aureus KCTC 1621; test: Growth inhibition, overlay clear zone test (S. aureus); format: cell-based; details: RCM agar overlay, anaerobic, 37° C., about 40 hours; triclosan 10 mg/ml
# Procedure: as §2
SMILES,expression of IL-6 (IL-6),cell survival rate (HaCaT cells),IL-8 expression (inflammation response) (IL-8),growth inhibition of C. acnes (clear zone) [1],growth inhibition of S. aureus (clear zone) [2]
O=C(/C=C/c1ccc(O)c(O)c1)O[C@H](Cc1ccc(O)c(O)c1)C(=O)O [rosmarinic acid],reduced at a similar level,could be increased,inflammation response was reduced,,
Oc1cc(Cl)ccc1Oc1ccc(Cl)cc1Cl [triclosan],,,,"the clear zone was observed, but it had much smaller area than GENSC01 treatment","the clear zone was observed, but it had much smaller area than GENSC01 treatment"
